The source of these data is patent US20240158370A1, “CK1 alpha AND DUAL CK1 alpha / GSPT1 DEGRADING COMPOUNDS” (Innovo Therapeutics, Inc., priority 2022, published 2024).

For experiment [1], the target named is GSPT1 (Homo sapiens, UniProt P15170+Q96SW2). As to the kind of experiment: HiBiT degradation assay, GSPT1, Procedure A. Conditions: six hours incubation. In kind it is cell-based. More on the design: HiBit-GSPT1 KI HEK293(LgBit) Cells; host or cells: HEK293(LgBit) knock-in cells. In outline: (§1)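 DC50 and Ymin (% remaining) were derived by four-parameter fitting of luminescence data. The data come from a six-hour, 37° C compound exposure of cells in DMEM/10% FBS over a ten-point range, 10 μM to 0.005 μM, followed by Nano-Glo HiBiT lytic detection.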
GSPT1, sequence (P15170 whole entry): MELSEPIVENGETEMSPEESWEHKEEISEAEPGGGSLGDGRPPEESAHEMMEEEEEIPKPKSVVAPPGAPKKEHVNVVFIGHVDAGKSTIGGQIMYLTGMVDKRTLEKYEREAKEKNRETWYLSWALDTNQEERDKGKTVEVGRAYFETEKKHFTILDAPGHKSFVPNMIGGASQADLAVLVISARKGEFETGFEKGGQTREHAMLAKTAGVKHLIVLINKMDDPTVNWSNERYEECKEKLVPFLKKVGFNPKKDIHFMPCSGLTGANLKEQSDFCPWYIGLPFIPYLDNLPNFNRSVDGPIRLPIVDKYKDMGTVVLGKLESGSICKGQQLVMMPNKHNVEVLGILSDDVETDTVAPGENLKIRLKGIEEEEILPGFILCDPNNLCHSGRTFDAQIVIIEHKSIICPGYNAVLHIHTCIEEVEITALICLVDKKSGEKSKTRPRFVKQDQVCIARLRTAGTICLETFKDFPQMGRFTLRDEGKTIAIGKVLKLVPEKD
GSPT1, sequence (Q96SW2 whole entry): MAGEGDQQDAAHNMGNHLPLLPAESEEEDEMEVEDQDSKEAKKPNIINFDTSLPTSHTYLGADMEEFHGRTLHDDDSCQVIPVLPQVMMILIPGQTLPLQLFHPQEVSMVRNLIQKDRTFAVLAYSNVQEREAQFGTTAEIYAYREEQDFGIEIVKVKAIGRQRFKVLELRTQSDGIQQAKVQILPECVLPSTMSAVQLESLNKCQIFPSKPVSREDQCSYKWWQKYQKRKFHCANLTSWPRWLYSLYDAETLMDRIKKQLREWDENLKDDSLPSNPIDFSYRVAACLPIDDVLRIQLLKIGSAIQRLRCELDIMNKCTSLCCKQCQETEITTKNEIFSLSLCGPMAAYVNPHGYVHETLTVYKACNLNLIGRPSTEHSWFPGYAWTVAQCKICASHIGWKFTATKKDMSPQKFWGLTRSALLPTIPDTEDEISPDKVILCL
GSPT1, sequence (Q16531 whole entry partner): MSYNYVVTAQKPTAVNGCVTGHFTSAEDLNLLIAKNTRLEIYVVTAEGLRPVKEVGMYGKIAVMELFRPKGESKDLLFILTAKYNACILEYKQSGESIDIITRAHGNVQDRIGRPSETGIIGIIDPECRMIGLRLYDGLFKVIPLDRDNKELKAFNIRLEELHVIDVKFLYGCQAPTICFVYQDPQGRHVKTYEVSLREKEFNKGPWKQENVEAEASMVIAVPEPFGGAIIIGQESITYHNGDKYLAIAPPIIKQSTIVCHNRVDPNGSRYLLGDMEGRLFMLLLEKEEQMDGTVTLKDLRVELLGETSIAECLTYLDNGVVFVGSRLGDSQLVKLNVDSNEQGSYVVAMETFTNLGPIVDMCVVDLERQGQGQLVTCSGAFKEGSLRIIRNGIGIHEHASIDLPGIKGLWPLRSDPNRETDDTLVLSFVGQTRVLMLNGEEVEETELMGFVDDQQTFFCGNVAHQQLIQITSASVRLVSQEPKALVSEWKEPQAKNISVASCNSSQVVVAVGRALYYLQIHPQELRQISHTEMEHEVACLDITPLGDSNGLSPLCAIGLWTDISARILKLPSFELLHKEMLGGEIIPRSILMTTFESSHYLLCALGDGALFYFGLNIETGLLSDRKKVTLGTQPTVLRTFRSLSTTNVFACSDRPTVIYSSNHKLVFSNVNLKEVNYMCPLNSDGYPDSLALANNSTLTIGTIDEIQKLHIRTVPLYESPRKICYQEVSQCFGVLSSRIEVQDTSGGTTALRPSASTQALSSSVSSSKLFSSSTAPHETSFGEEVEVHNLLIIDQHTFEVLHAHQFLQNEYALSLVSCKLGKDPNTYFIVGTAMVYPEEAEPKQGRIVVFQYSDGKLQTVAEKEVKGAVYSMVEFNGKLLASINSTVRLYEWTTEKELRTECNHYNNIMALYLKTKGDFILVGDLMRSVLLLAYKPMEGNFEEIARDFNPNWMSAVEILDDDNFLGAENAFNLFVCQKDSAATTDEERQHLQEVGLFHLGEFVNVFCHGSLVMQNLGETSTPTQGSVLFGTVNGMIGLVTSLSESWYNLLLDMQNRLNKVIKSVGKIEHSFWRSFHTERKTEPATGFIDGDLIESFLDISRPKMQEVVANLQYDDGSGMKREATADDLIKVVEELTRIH

In experiment [2] the target is T1, CK1α (Homo sapiens, UniProt P48729+Q96SW2).
T1 construct: CSNK1A1-HiBit KI HEK293(LgBit) Cells; host or cells: HEK293(LgBit) knock-in cells
T1 sequence (P48729 whole entry): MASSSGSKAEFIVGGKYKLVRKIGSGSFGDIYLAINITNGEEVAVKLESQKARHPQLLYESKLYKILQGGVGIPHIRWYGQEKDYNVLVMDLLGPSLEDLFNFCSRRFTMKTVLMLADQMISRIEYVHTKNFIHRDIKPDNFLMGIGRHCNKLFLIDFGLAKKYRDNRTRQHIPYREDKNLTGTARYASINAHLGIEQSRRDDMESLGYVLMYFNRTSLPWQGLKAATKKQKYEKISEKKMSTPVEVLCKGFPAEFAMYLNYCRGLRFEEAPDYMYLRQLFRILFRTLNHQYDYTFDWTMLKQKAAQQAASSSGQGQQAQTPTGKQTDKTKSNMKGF
T1 sequence (Q96SW2 whole entry): as the sequence (Q96SW2 whole entry) above
T1 sequence (Q16531 whole entry partner): as the sequence (Q16531 whole entry partner) above
As to the kind of experiment: HiBiT degradation assay, CK1α, Procedure A. The format is cell-based. Conditions: six hours incubation. In outline:
as §1
(In general: HiBiT is a short tag that completes a luciferase, so light tracks the accessible tagged protein.)

By DC50 is commonly meant the concentration giving 50% degradation. A higher DC50 goes with degradation only at high concentration. For the molecule `Cn1cnc(-c2ccc3c(c2)CN(C2CCC(=O)NC2=O)C3=O)c1-c1ccccc1Cl` (stereo not shown) [Example 175], in experiment [1], the DC50 is ≥ 0.025 µM and the “GSPT1 Ymin” value is given as “F (F = >75-100% remaining)”. In experiment [2], the “CK1α Ymin” value was “D (D = >10- 25% remaining)” and the DC50 is < 0.025 µM.
Take `Cn1cnc(-c2ccc3c(c2)CN(C2CCC(=O)NC2=O)C3=O)c1-c1ccc(F)cc1F` (stereo not shown) [Example 176]: in experiment [1], the 50% degradation concentration (DC50) is < 0.025 µM and the “GSPT1 Ymin” value is “E (E = >25-75% remaining)”. Also, in experiment [2], the “CK1α Ymin” value is “D (D = >10- 25% remaining)” and the DC50 was < 0.025 µM.
Take `Cn1cnc(-c2ccc3c(c2)CN(C2CCC(=O)NC2=O)C3=O)c1-c1ccc(F)c(F)c1` (stereo not shown) [Example 177]: in experiment [1], the DC50 was < 0.025 µM and the “GSPT1 Ymin” value is “E (E = >25-75% remaining)”. Also, in experiment [2], the “CK1α Ymin” value is given as “D (D = >10- 25% remaining)” and the 50% degradation concentration (DC50) was < 0.025 µM.
As for `Cn1ncc(-c2ccc3c(c2)CN(C2CCC(=O)NC2=O)C3=O)c1-c1cc(F)cc(F)c1` (stereo not shown) [Example 178], in experiment [1], the DC50 was < 0.025 µM and the “GSPT1 Ymin” value is given as “F (F = >75-100% remaining)”. In addition, in experiment [2], the “CK1α Ymin” value is “D (D = >10- 25% remaining)” and the DC50 is < 0.025 µM.
For `Cn1cnc(-c2ccc3c(c2)CN(C2CCC(=O)NC2=O)C3=O)c1-c1cc(F)ccc1F` (stereo not shown) [Example 179], in experiment [1], the DC50 is < 0.025 µM and the “GSPT1 Ymin” value was “E (E = >25-75% remaining)”. Also, in experiment [2], the “CK1α Ymin” value was “D (D = >10- 25% remaining)” and the DC50 was < 0.025 µM.
On to `Cc1cc(C#N)ccc1-c1c(-c2ccc3c(c2)CN(C2CCC(=O)NC2=O)C3=O)ncn1C` (stereo not shown) [Example 180], for which, in experiment [1], the 50% degradation concentration (DC50) was ≥ 0.025 µM and the “GSPT1 Ymin” value is on record as “F (F = >75-100% remaining)”. For the same molecule, in experiment [2], the “CK1α Ymin” value was “E (E = >25-75% remaining)” and the DC50 is ≥ 0.025 µM.
Turning to `Cn1cnc(-c2ccc3c(c2)CN(C2CCC(=O)NC2=O)C3=O)c1-c1ccc(Cl)s1` (stereo not shown) [Example 181], in experiment [1], the 50% degradation concentration (DC50) was ≥ 0.025 µM and the “GSPT1 Ymin” value is listed as “E (E = >25-75% remaining)”. Besides, in experiment [2], the “CK1α Ymin” value is “C (C = 0-10% remaining)” and the half-maximal degradation concentration (DC50) is < 0.025 µM.
Consider `CC(C)c1ccccc1-c1c(-c2ccc3c(c2)CN(C2CCC(=O)NC2=O)C3=O)ncn1C` (stereo not shown) [Example 182], for which, in experiment [1], the 50% degradation concentration (DC50) was ≥ 0.025 µM and the “GSPT1 Ymin” value is listed as “F (F = >75-100% remaining)”. Moreover, in experiment [2], the “CK1α Ymin” value is “E (E = >25-75% remaining)” and the half-maximal degradation concentration (DC50) was < 0.025 µM.
In the case of `CC(C)c1cccc(-c2c(-c3ccc4c(c3)CN(C3CCC(=O)NC3=O)C4=O)ncn2C)c1` (stereo not shown) [Example 183], in experiment [1], the 50% degradation concentration (DC50) was ≥ 0.025 µM and the “GSPT1 Ymin” value is on record as “F (F = >75-100% remaining)”. Also, in experiment [2], the “CK1α Ymin” value is on record as “E (E = >25-75% remaining)” and the 50% degradation concentration (DC50) is < 0.025 µM.
In the same order, the values of `Cn1cnc(-c2ccc3c(c2)CN(C2CCC(=O)NC2=O)C3=O)c1-c1cc(F)cc(C#N)c1` (stereo not shown) [Example 185] are ≥ 0.025 µM, “F (F = >75-100% remaining)”, “D (D = >10- 25% remaining)” and < 0.025 µM.
On to `Cn1cnc(-c2ccc3c(c2)CN(C2CCC(=O)NC2=O)C3=O)c1-c1cc(C#N)ccc1F` (stereo not shown) [Example 186], for which, in experiment [1], the half-maximal degradation concentration (DC50) was ≥ 0.025 µM and the “GSPT1 Ymin” value is reported as “F (F = >75-100% remaining)”. In experiment [2], the “CK1α Ymin” value is listed as “E (E = >25-75% remaining)” and the 50% degradation concentration (DC50) is ≥ 0.025 µM.
For the molecule `Cn1cnc(-c2ccc3c(c2)CN(C2CCC(=O)NC2=O)C3=O)c1-c1ccc(C#N)cc1F` (stereo not shown) [Example 187], in experiment [1], the DC50 is ≥ 0.025 µM and the “GSPT1 Ymin” value is given as “F (F = >75-100% remaining)”. For the same molecule, in experiment [2], the “CK1α Ymin” value is given as “D (D = >10- 25% remaining)” and the DC50 was < 0.025 µM.
The like results for `COc1ccc(-c2c(-c3ccc4c(c3)CN(C3CCC(=O)NC3=O)C4=O)ncn2C)c(C)c1` (stereo not shown) [Example 188] were, in that order, < 0.025 µM, “E (E = >25-75% remaining)”, “C (C = 0-10% remaining)” and < 0.025 µM.
